Values after ≈ are worked out from the molar mass of the structure shown. Like-named read-outs stand apart in the source and are kept apart here.
What was measured:
MV-Alaska [1] = assay: Viral CPE-reduction assay (MeV-Alaska in Vero-SLAM cells, crystal violet); format: cell-based, Measles virus (MeV)
Description: Methods for evaluating viral activity are provided for in Yoon et al., J Biomol Screen., 2008, 13(7): 591-608 and Krumm et al., PLoS ONE, 2011, 6(5), e20069, both hereby incorporated by reference in their entirety. In certain instances, Vero-SLAM cells were infected with MeV-Alaska in four replicates per compound concentration in a 96-well plate format at an MOI of 0.4 pfu/cell in the presence of the inhibitor. At 96 hours post-infection, cell monolayers were subjected to crystal violet staining (0.1% crystal violet in 20% ethanol), and the absorbance of dried plates at 560 nm determined. Virus-induced cytopathicity was then calculated according to the formula [% rel. CPE=100-(experimental-minimum)/(maximum-minimum)*100], with minimum referring to infected, vehicle-treated wells and maximum to mock-infected wells.

[2] = Aqueous solubility by nephelometry; format: physicochemical; conditions: for solubility: buffer, pH 7.4, aqueous buffer, kinetic from dmso stock
Vero cells = assay: MTT cytotoxicity; format: cell-based; conditions: averages of at least three experiments; highest concentration assessed 75 μM
MV-Alaska [3] = assay: Virus yield (virus titer) reduction assay; format: cell-based, Measles virus (MeV); conditions: Measles morbillivirus
[4] = Pharmacokinetic study in rat, plasma concentration after dosing; format: in vivo, Sprague-Dawley rat; conditions: for AUC(0-inf) / AUC (0-t) / Cmax / Tmax / half-life / AUC (0-∞) / T½: suspension in PEG200/0.5% methylcellulose (10/90); for half-life: read-out: T½ (converted); for dose proportionality: range of 10 mg/kg to 50 mg/kg
Description: Preliminary pharmacokinetic (PK) studies in the Sprague-Dawley rat compared AS-136a with compounds 2k and 2o following p.o. dosing by oral gavage at 10 mg/kg and 50 mg/kg in a PEG200/0.5% methylcellulose (10/90) vehicle (n=4/group).
The data from the preliminary pharmacokinetic studies using the 6-hour time point are reported for comparison purposes. […] On the basis of its excellent in vitro potency, good solubility and pharmacokinetic profile, compound 2o was chosen for further bioavailability evaluation.

MTT cytotoxicity = format: cell-based; conditions: African green monkey, Vero cells; averages of at least three experiments; highest concentration assessed 75 μM
[5] = Measles morbillivirus, Table 2, phenyl and acyclic series, read-out: EC50 (μM) (MV-Alaska) (CPE inhibition)
[6] = Measles morbillivirus, Table 3, averages of four experiments, concentration range 2.3-75 μM, read-out: EC50 (μM) (MV-Alaska) CPE inhibition
[7] = averages of two to four experiments ± SEM, highest concentration assessed 1 μM, read-out: EC50 (μM) (MV-Alaska) virus titer reduction
[8] = Measles morbillivirus, Table 1, piperidine series, read-out: EC50 (μM) (MV-Alaska) (CPE inhib.)
[9] = Sprague-Dawley, plasma, oral 10 mg/kg
[10] = Sprague-Dawley, plasma, oral 50 mg/kg
[11] = MV-Alaska, read-out: EC50 in the virus titer reduction assay

With `Cn1nc(C(F)(F)F)cc1C(=O)Nc1ccc(S(=O)(=O)c2ccccc2CO)cc1` [Compound 3f, N-(4-((2-(hydroxymethyl)phenyl)sulfonyl)phenyl)-1-methyl-3-(trifluoromethyl)-pyrazole-5-carboxamide] the EC50 (MV-Alaska [1]; [5]) was 3.1 µM, the EC50 (MV-Alaska [1]; [6]) was 3.1 µM and the “Aqueous solubility (μg/ml) Test” value ([2]; Nephelometer, buffer pH=7.4) was 46 µg/mL. The CC50 (Vero cells) was greater than 75 µM.
For `Cn1nc(C(F)(F)F)cc1C(=O)Nc1ccc(S(=O)(=O)c2ccccc2)cc1` [Compound 3a, 1-methyl-N-(4-(phenylsulfonyl)phenyl)-3-(trifluoromethyl)-pyrazole-5-carboxamide], the EC50 (MV-Alaska [1]; [5]) was 2.8 µM, the “Aqueous solubility (μg/ml) Test” value ([2]; Nephelometer, buffer pH=7.4) was 22 µg/mL and the CC50 (Vero cells) was greater than 75 µM. The EC50 (MV-Alaska [3]; [7]) was 0.02 µM.
For `Cn1nc(C(F)(F)F)cc1C(=O)Nc1ccc(S(=O)(=O)N2CCCCC2CCN2CCOCC2)cc1` (stereo not drawn) [Compound 2n, 1-methyl-N-(4-((2-(2-morpholinoethyl)piperidin-1-yl)sulfonyl)phenyl)-3-(trifluoromethyl)-pyrazole-5-carboxamide], the EC50 (MV-Alaska [1]; [8]) was 4.6 µM, the “Aqueous solubility (μg/ml) Test” value ([2]; Nephelometer, buffer pH=7.4) was 55 µg/mL and the CC50 (Vero cells) was greater than 75 µM.
`COc1ccccc1S(=O)(=O)c1ccc(NC(=O)c2cc(C(F)(F)F)nn2C)cc1` [Compound 3b, N-(4-((2-methoxyphenyl)sulfonyl)phenyl)-1-methyl-3-(trifluoromethyl)-pyrazole-5-carboxamide] showed an EC50 (MV-Alaska [1]; [5]) of 3.1 µM and a CC50 (Vero cells) greater than 75 µM.
`Cn1nc(C(F)(F)F)cc1C(=O)Nc1ccc(S(=O)(=O)N2CCCCC2CCN2CCOCC2)cc1` (single isomer, unassigned) [Compound 2o, 1-methyl-N-(4-((2-(2-morpholinoethyl)piperidin-1-yl)sulfonyl)phenyl)-3-(trifluoromethyl)-pyrazole-5-carboxamide] gave an EC50 (MV-Alaska [1]; [8]) of 4.5 µM, an EC50 (MV-Alaska [1]; [6]) of 4.5 µM and a solubility ([2]; Nephelometer, read-out: Aqueous solubility (μg/ml) Test) of 60 µg/mL (≈ 113 µM). The solubility ([2]; nephelometry, read-out: aqueous solubility) was roughly 60 µg/mL (≈ 113 µM), the AUC(0-inf) [4, 9] was 818 ng·h/mL and the AUC (0-t) ([4]; Sprague-Dawley, plasma, oral 10 mg/kg, read-out: AUC (0-t)) was 683 ng·h/mL. The Cmax ([4]; Sprague-Dawley, plasma, oral 10 mg/kg, read-out: Cmax) was 195 ng/mL, the Tmax ([4]; Sprague-Dawley, plasma, oral 10 mg/kg, read-out: Tmax) was 1.1 h and the half-life [4, 9] was 2.2 h. The AUC(0-inf) [4, 10] was 7860 ng·h/mL, the AUC (0-t) ([4]; Sprague-Dawley, plasma, oral 50 mg/kg, read-out: AUC (0-t)) was 3520 ng·h/mL and the Cmax ([4]; Sprague-Dawley, plasma, oral 50 mg/kg, read-out: Cmax) was 823 ng/mL. For the same compound, the Tmax ([4]; Sprague-Dawley, plasma, oral 50 mg/kg, read-out: Tmax) was 1.5 h, the half-life [4, 10] was 6.5 h and the bioavailability ([4]; Sprague-Dawley, plasma, oral, 2 mg/kg i.v. and 10 mg/kg p.o., read-out: oral bioavailability (F)) was 39%. The “exposure (AUC/Cmax) increase in rat relative to AS-136a” value ([4]; p.o.) was 10 fold, the dose proportionality ([4]; p.o.) was “near dose proportionality” and the CC50 (MTT cytotoxicity) was greater than 75 µM. It also gave an EC50 (MV-Alaska [3]; [11]) of 0.02 µM and an EC50 (MV-Alaska [3]; [7]) of 0.02 µM.
For `Cn1nc(C(F)(F)F)cc1C(=O)Nc1ccc(S(=O)(=O)N2CCCCC2CCO)cc1` (stereo not drawn) [Compound 2k, N-(4-((2-(2-hydroxyethyl)piperidin-1-yl)sulfonyl)phenyl)-1-methyl-3-(trifluoromethyl)-pyrazole-5-carboxamide], the EC50 (MV-Alaska [1]; [6]) was 2.7 µM, the EC50 (MV-Alaska [1]; Measles morbillivirus, MV-Alaska, read-out: EC50, CPE assay) was 2.7 µM and the “Aqueous solubility (μg/ml) Test” value ([2]; Nephelometer, buffer pH=7.4) was 62 µg/mL. For the same compound, the “AUC (0-t)” value ([4]; oral 10 mg/kg) was 56.3 ng·h/mL, the “AUC (0-∞)” value ([4]; oral 10 mg/kg) was 56.8 ng·h/mL and the Cmax ([4]; oral 10 mg/kg) was 19.8 ng/mL. For the same compound, the Tmax ([4]; oral 10 mg/kg) was 1 h, the T½ ([4]; oral 10 mg/kg) was 0.8 h and the “AUC (0-t)” value ([4]; oral 50 mg/kg) was 754 ng·h/mL. The “AUC (0-∞)” value ([4]; oral 50 mg/kg) was 973 ng·h/mL, the Cmax ([4]; oral 50 mg/kg) was 184 ng/mL and the Tmax ([4]; oral 50 mg/kg) was 0.5 h. For the same compound, the T½ ([4]; oral 50 mg/kg) was 2.7 h, the dose proportionality ([4]; p.o.) was “non-proportionality” and the CC50 (Vero cells) was greater than 75 µM. The EC50 (MV-Alaska [3]; [11]) was 0.06 µM and the EC50 (MV-Alaska [3]; [7]) was 0.06 µM.
Work on `CCOC(=O)COCC1CCCCN1S(=O)(=O)c1ccc(NC(=O)c2cc(C(F)(F)F)nn2C)cc1` (stereo not drawn) [Compound 2p, ethyl 2-((1-((4-(1-methyl-3-(trifluoromethyl)-pyrazole-5-carboxamido)phenyl)sulfonyl)piperidin-2-yl)methoxy)acetate] yielded an EC50 (MV-Alaska [1]; [8]) of 25 µM.
Compound `COCOCC1CCCN(S(=O)(=O)c2ccc(NC(=O)c3cc(C(F)(F)F)nn3C)cc2)C1` (stereo not drawn) [Compound 1b, N-(4-((3-((methoxymethoxy)methyl)piperidin-1-yl)sulfonyl)phenyl)-1-methyl-3-(trifluoromethyl)-pyrazole-5-carboxamide] has an EC50 (MV-Alaska [1]; [8]) of 3.8 µM.
In the case of `Cn1nc(C(F)(F)F)cc1C(=O)Nc1ccc(S(=O)(=O)N2CCCCC2)cc1` [AS-136a, 1-methyl-N-(4-(piperidin-1-ylsulfonyl)phenyl)-3-(trifluoromethyl)-pyrazole-5-carboxamide, reference compound], the “aqueous solubility” value ([2]; nephelometry, buffer pH=7.4) is reported as 15.0 µg/mL (≈ 36 µM), the “AUC (0-t)” value ([4]; oral 10 mg/kg) is reported as 132 ng·h/mL and the “AUC (0-∞)” value ([4]; oral 10 mg/kg) is reported as 513 ng·h/mL. For the same compound, the Cmax ([4]; oral 10 mg/kg) was 26.9 ng/mL, the Tmax ([4]; oral 10 mg/kg) was 2.5 h and the T½ ([4]; oral 10 mg/kg) was 12.7 h. For the same compound, the “AUC (0-t)” value ([4]; oral 50 mg/kg) was 308 ng·h/mL, the “AUC (0-∞)” value ([4]; oral 50 mg/kg) was 483 ng·h/mL and the Cmax ([4]; oral 50 mg/kg) was 72.2 ng/mL. For the same compound, the Tmax ([4]; oral 50 mg/kg) was 2.7 h, the T½ ([4]; oral 50 mg/kg) was 3.7 h and the CC50 (Vero cells) was greater than 75 µM. For the same compound, the EC50 (MV-Alaska [3]; [7]) was 0.014 µM.
With `Cn1nc(C(F)(F)F)cc1C(=O)Nc1ccc(S(=O)(=O)c2ccccc2O)cc1` [Compound 3c, N-(4-((2-hydroxyphenyl)sulfonyl)phenyl)-1-methyl-3-(trifluoromethyl)-pyrazole-5-carboxamide] the EC50 (MV-Alaska [1]; [5]) was 4.5 µM, the “Aqueous solubility (μg/ml) Test” value ([2]; Nephelometer, buffer pH=7.4) was 67 µg/mL and the CC50 (MTT cytotoxicity) was no less than 75 µM.
With `Cn1nc(C(F)(F)F)cc1C(=O)Nc1ccc(S(=O)(=O)N2CCCCC2CO)cc1` (stereo not drawn) [Compound 2a] the EC50 (MV-Alaska [1]; [8]) was 2.8 µM, the EC50 (MV-Alaska [1]; [6]) was 2.3 µM and the “Aqueous solubility (μg/ml) Test” value ([2]; Nephelometer, buffer pH=7.4) was 61 µg/mL. The CC50 (Vero cells) was greater than 75 µM and the EC50 (MV-Alaska [3]; [7]) was 0.85 ± 0.05 µM.
`Cn1nc(C(F)(F)F)cc1C(=O)Nc1ccc(S(=O)(=O)N2CCCCC2CN=[N+]=[N-])cc1` (stereo not drawn) [Compound 2c] gave an EC50 (MV-Alaska [1]; [8]) of 1.5 µM.
`Cn1nc(C(F)(F)F)cc1C(=O)Nc1ccc(S(=O)(=O)N2CCCCC2CCO)cc1` (stereo not drawn) [Compound 2m, N-(4-((2-(2-hydroxyethyl)piperidin-1-yl)sulfonyl)phenyl)-1-methyl-3-(trifluoromethyl)-pyrazole-5-carboxamide] showed an EC50 (MV-Alaska [1]; Table 1, piperidine series, read-out: EC50 (μM) (MV-Alaska) (CPE inhib.)) of 3.1 µM.
